Test results reported in patent US12202832B2, “Heterocyclic compounds having a calcium-sensing receptor antagonistic activity” (TAKEDA PHARMACEUTICAL COMPANY LIMITED, priority 2017, dated 2025).

Experiments:
[1] = test system: aortic banding (TAC) models; details: cited from earlier work
cardiac hypofunction = details: dosing after cardiac loading; cited from earlier work
CYP3A = assay: CYP induction (CYP3A activity in cryopreserved hepatocytes, P450-Glo CYP3A4 assay); assay type: in vitro ADME; details: % of positive control; inducibility by 10 μmol/L rifampicin defined as 100%; hepatocytes treated 3 days
Description: Cryopreserved hepatocytes were thawed in a culture medium (In VitroGRO™ CP Medium, Celsis In Vitro Technologies, U.S.A.), and the resultant was added to BioCoat™ Matrigel®™ Matrix Thin-Layer 96 well (Becton, Dickinson and Company, U.S.A.) at a concentration of 40,000 cells/well. After culturing for 24 hours, the culture medium was removed, and replaced with an incubation medium (In VitroGRO™, HI Medium with Torpedo Antibiotic Mix, Celsis In Vitro Technologies, U.S.A.). Cells were cultured for an additional 3 days. The medium was removed on day 4, and the remained cells were treated in the induction medium containing a test compound for 3 days in the presence or absence of 10 μmol/L rifampicin. The induction medium was replaced every day. The test compound addition wells in the presence of 10 μmol/L rifampicin were used to evaluate the inhibitory effect of the test compound on the inducibility of the CYP3A activity by rifampicin. The CYP3A activity was evaluated by measuring luciferin generating amount after the addition of 2 μmol/L luciferin-IPA using IPA P450-Glo™ CYP3A4 assay systems (Promega Corporation, U.S.A.). All cultures were carried out under a humidified environment at 37° C., 5% CO2. The inducibility by rifampicin was defines as 100%, and the inducibility of the test compound (% of positive control) was calculated from the following equation: [(luciferin fluorescence intensity in the absence of rifampicin and the presence of test compound)−(luciferin fluorescence intensity in the absence of rifampicin and test compound)/(luciferin fluorescence intensity in the presence of rifampicin and the absence of test compound)−(Luciferin fluorescence intensity in the absence of rifampicin and test compound)]×100.

CYP3A4 = biological target: T1, CYP3A4 (Homo sapiens, UniProt P08684); assay: CYP3A4 TDI in human liver microsomes (testosterone 6β-hydroxylation); assay type: in vitro ADME; details: 30 μM test compound, 60 min vs 0 min preincubation, solvent acetonitrile
T1 construct: Human liver microsomes purchased from XenoTech, LLC (Lenexa, KS) was used; tissue XenoTech, LLC (Lenexa, KS); host or cells: human liver microsomes
T1 sequence (P08684 whole entry): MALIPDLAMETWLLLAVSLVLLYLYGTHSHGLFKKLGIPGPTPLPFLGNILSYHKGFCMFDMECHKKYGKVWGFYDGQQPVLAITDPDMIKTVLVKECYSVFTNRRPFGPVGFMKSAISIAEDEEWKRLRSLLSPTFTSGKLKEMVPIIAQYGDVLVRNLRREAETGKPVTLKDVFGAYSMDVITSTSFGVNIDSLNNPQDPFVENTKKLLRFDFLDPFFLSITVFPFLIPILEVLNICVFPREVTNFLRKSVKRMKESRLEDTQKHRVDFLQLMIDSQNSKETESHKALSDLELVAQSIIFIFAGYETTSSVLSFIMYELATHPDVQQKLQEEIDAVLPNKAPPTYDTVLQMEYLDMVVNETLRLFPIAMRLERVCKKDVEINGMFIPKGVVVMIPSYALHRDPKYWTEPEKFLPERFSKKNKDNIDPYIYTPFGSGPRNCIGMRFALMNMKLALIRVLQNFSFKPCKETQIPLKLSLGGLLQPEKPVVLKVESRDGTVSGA
Description: Human liver microsomes purchased from XenoTech, LLC (Lenexa, KS) was used. Test compounds were dissolved in acetonitrile or DMSO/acetonitrile (1:4, v/v). To a human liver microsomes solution adjusted with phosphate buffer (pH 7.4), the test compound solution was added to obtain a human liver microsomes reaction solution having the test compound concentration of 30 μM. To the human liver microsome reaction solution, NADPH production system was added, and the mixture was preincubated at 37° C. for 0 minutes or 60 minutes. After the preincubation, probe substrate testosterone was added, and testosterone metabolite 6β-hydroxytestosterone was analyzed by LC/MS/MS to evaluate CYP3A4 enzymatic activity.
The enzyme activity (% of control) at each preincubation point was calculated from the following equation: % of control={(activity of test compound addition group)/(activity of test compound non-addition group)}×100.
The remaining activity (% remaining) after 60 minutes of preincubation was calculated from the following equation: Remaining activity (%)={activity after 60 minutes (% of control60 min)}/{activity after 0 minutes (% of control0 min)}×100.

human CaSR = biological target: T2, human CaSR (Homo sapiens, UniProt P41180); assay: Human CaSR antagonist activity (NFAT-Luciferase reporter in CHO cells); assay type: cell-based; details: CHO, CaCl2 final 1.3 mM, 100% = reference antagonist at 10 μM, read-out: Inhibition rate (%) at 3.3 μM
T2 construct: expressed in transfected cells; host or cells: CHO cells
T2 sequence (P41180 20-1078): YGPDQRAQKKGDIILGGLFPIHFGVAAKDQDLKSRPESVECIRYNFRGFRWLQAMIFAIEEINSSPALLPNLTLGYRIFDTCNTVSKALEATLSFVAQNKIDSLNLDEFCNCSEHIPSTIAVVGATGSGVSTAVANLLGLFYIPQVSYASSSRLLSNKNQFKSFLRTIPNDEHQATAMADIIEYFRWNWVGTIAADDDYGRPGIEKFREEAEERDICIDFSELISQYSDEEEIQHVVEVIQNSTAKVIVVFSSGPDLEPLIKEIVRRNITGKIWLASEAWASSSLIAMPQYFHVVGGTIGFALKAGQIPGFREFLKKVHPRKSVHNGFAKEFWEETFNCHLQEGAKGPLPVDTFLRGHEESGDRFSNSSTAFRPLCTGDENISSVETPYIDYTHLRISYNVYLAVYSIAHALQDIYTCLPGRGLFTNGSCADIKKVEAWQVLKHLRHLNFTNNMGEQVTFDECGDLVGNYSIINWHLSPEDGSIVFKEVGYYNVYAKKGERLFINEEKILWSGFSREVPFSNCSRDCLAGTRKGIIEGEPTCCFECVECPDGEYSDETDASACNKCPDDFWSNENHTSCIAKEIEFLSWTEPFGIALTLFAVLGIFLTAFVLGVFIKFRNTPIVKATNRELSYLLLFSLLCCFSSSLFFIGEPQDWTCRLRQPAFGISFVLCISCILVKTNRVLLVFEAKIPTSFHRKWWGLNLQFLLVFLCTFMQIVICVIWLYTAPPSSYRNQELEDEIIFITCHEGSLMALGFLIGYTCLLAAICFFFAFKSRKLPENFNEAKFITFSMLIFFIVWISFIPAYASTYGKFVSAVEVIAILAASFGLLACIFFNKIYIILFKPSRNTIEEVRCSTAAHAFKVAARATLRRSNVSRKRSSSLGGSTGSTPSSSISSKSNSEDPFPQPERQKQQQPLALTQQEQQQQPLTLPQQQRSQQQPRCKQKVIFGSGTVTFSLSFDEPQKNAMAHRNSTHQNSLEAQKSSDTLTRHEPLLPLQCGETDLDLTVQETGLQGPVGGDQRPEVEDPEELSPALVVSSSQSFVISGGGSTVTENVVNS
Description: CaSR antagonist activity measurement was performed using Bright-Glo Luciferase assay system (Promega Corporation). CHO cells in which human CaSR and NFAT-Luciferase reporter gene were forcibly expressed were suspended in MEM alpha (Wako Pure Chemical Industries, Ltd.) containing 10% dialyzed serum (HyClone). The cells in suspension was seeded in 384-well white plate (Corning) at 10,000/20 μL/well, and cultured in an incubator of 37° C., 5% CO2 for one day. A diluent of Test compound was prepared with assay buffer (MEM alpha containing 10 mM HEPES (Life Technologies) and 10% dialysis serum). The diluent was added to the plate at 5 μL/well and allowed to stand at 37° C. for 10 minutes. Further, a diluent of 7.8 mM CaCl2 prepared with assay buffer (final concentration 1.3 mM) was added at 5 μl/well and allowed to stand in an incubator of 37° C., 5% CO2 for 2 hours. Bright-Glo reagents (Promega Corporation) were added at 10 μL/well, and the obtained mixture was stirred for 5 minutes, and then luminescence intensity was measured using Multi-label reader Envision (PerkinElmer, Inc.). The activity (%) of the test compound was calculated with the definitions in which the luminescence intensity when DMSO is added in place of the test compound is defined as 0% inhibition; and the luminescence intensity when (5R)—N-(1-ethyl-1-(4-ethylphenyl)propyl)-2,7,7-trimethyl-5-phenyl-4,5,6,7-tetrahydropyrazolo[1,5-a] Pyrimidine-3-carboxamide at final concentration of 10 μM is added is defined as 100% inhibition.

[2] = test system: monocrotaline (MCT)-induced pulmonary hypertension rats; details: cited from earlier work
[3] = test system: hypoxia-induced pulmonary hypertension (HPH) mice; details: cited from earlier work

SMILES	Effect on cardiac hypertrophy [1]	Effect on cardiac hypofunction (cardiac hypofunction)	Inducibility (CYP3A) [%]	Remaining Activity (CYP3A4) [%]	inhibition at 3.3 µM (human CaSR) [%]	Effect on pulmonary hypertension pathology [2]	Effect on pulmonary hypertension pathology [3]
C[C@@H](N[C@H]1CCCC[C@@H]1NC(=O)c1ccc(Cl)cc1)c1cccc2ccccc12 [Calhex231]	improves cardiac hypertrophy	fails to improve cardiac hypofunction	–	–	–	–	–
CCc1ccc(C(CC)(NC(=O)c2cnn3c2N[C@@H](c2ccccc2)CC3(C)C)C(=O)N[C@H](C(N)=O)C(C)C)cc1 (single isomer, unassigned) [Example 12]	–	–	17.3	74.3	99	–	–
CCc1ccc(C(CC)(NC(=O)c2cnn3c2N[C@@H](c2ccccc2)CC3(C)C)C(=O)N[C@@H](C)C(N)=O)cc1 (single isomer, unassigned) [Example 4]	–	–	20.8	95.6	102	–	–
CCc1ccc(C(CC)(NC(=O)c2cnn3c2N[C@@H](c2ccccc2)CC3(C)C)C(=O)N[C@@H](CC)C(N)=O)cc1 (single isomer, unassigned) [Example 6]	–	–	18.6	80.2	105	–	–
CC(C)(Cc1ccc2ccccc2c1)NC[C@@H](O)COc1cccc(Cl)c1C#N [NPS-2143]	–	–	–	–	–	suppressed cardiac hypertrophy, elevated right ventricular systolic pressure, fibrosis of cardiac muscle tissue, pulmonary vascular remodeling or the like	suppressed cardiac hypertrophy, elevated right ventricular systolic pressure, fibrosis of cardiac muscle tissue, pulmonary vascular remodeling or the like
